Literature values as cited in patent US20240065975A1, “OTF COMPOUND CONNECTED BY SEWING” (LTS LOHMANN THERAPIE-SYSTEME AG, priority 2021, published 2024).

Conditions: compared with (R)-ketamine

SMILES: CNC1(c2ccccc2Cl)CCCCC1=O (racemic) [(S)-ketamine, (S)-(±)-2-(2-chlorophenyl)-2-(methylamino)cyclohexan-1-one]
- analgesic and anaesthetic potency relative to the (R) form: approximately three times higher
